According to patent publication US20200171001A1, “COMBINATION THERAPY WITH 2,3-DIHYDRO-ISOINDOLE-1-ONE COMPOUNDS AND METHODS FOR TREATING PATIENTS WITH VARIOUS MUTATIONS” (Aptose Biosciences Inc., priority 2018, published 2020):

Tests used:
[1] = tested on: B-cell malignant cell lines (e.g. AML cell lines); assay: Potency against B-cell malignant cell lines compared with conventional IDH1 therapeutic agents; assay type: cell-based
[2] = tested on: malignant bone marrow or peripheral blood cells from AML patients; assay: Ex vivo drug sensitivity (MTS cell viability, IC50 and AUC) on freshly isolated primary AML patient samples, association with somatic mutations; assay type: cell-based, human; conditions: for Sensitivity of patient samples with FLT3-ITD mutations as compared to wild-type: AML patient samples with FLT3-ITD mutations vs WT, n=118 patients; for Sensitivity of patient samples with FLT3-ITD mutations as compared to wild-type / Sensitivity of patient samples with IDH1 mutants relative to WT: FIG. 1, FIG. 2; for Sensitivity of patient samples with IDH1 mutants relative to WT: AML patient samples with IDH1 mutations vs WT; for Effectiveness (AUC of drug sensitivity) against ASXL1 mutant cells compared with wild type: ASXL1 mutant vs wild type AML cells, FIG. 5; for Effectiveness (AUC of drug sensitivity) against SRSF2 mutant cells compared with wild type: SRSF2 mutant vs wild type AML cells
Protocol: For Genomics Analysis examples 2-4 below, studies were performed according to published procedures [Tyner, J. W., Tognon, C. E., Bottomly, D. et al. Functional genomic landscape of acute myeloid leukaemia. Nature 562, 526-531 (2018) doi:10.1038/s41586-018-0623-z; Kurtz, S. E., Eide, C. […] PNAS Sep. 5, 2017 114 (36) 7554-7563], which are incorporated by reference in their entirety herein.
All patient samples were analyzed for clinical characteristics and drug sensitivity. AML, CLL, ALL and MDS/MPN and other patient samples were analyzed with respect to expanded, disease-specific panels of clinical, prognostic, genetic, cytogenetic, and surface antigen characteristics obtained from patient electronic medical records. Genetic characterization of AML samples included results of a clinical deep-sequencing panel of genes commonly mutated in hematologic malignancies (GeneTrails panel from Knight Diagnostic Laboratories, OHSU; Foundation Medicine reports from UT Southwestern).
Compound 7 and/or venetoclax were prepared in a well in a seven-point concentration series. Similar plates were prepared with the 48 indicated pairwise inhibitor combinations in seven-point fixed molar concentration series identical to those used for single agents. The final concentration of DMSO was ≤0.1% in all wells, and all sets of single-agent and combination destination plates were stored at −20° C. and thawed immediately before use. Primary mononuclear cells were plated across single-agent and combination inhibitor panels within 24 h of collection. Cells were seeded into assay plates at 10,000 cells per well in RPMI 1640 media supplemented with FBS (10%), L-glutamine, penicillin/streptomycin, and β-mercaptoethanol (10^−4 M). After 3 d of culture at 37° C. in 5% CO2, MTS reagent (CellTiter96 AQueous One; Promega) was added, optical density was measured at 490 nm, and raw absorbance values were adjusted to a reference blank value and then used to determine cell viability (normalized to untreated control wells).
Normalized viability values at each dose of a seven-point dilution series for Compound 7, venetoclax or combinations of the two compounds were analyzed for each of numerous primary leukemia samples. Dose concentrations were log 10-transformed, and a probit regression curve was fit to each seven-point drug sensitivity profile by using maximum-likelihood estimation for the intercept and slope. This parametric model was chosen over a polynomial because the probit's monotonic shape reflects a dose-response curve typically seen in samples incubated with cytotoxic or inhibitory agents. Normalized viability values greater than 100%, indicating higher cell viability than the average viability across control wells on a given plate, were truncated to 100% to produce a percentage response variable amenable to probit modeling. From the fitted probit curve for each sample/drug pairing, the IC50 was defined as the lowest concentration to achieve 50% predicted viability and the AUC was computed by integration of the curve height across the tested dose range. If the predicted cell viability (i.e., probit curve height) was ≤50% at the lowest tested dose or >50% across the entire dose range, the IC50 was designated as the lowest dose or highest dose, respectively. For sensitivity profiles with 100% normalized viability at all seven dose points, the IC50 and AUC were designated as the highest tested dose and the maximum possible AUC, respectively. For sensitivity profiles with 0% viability at all seven dose points, the IC50 and AUC were designated as the lowest tested dose and a value (0.5) just below the minimum probit-derived AUC, respectively.
Genomics analysis of Compound 7 was performed by testing the association of somatic mutations and expression data with Compound 7 response on freshly harvested malignant bone marrow or peripheral blood cells from AML patients. […]

Cc1cnc(-c2ccc(-c3ccc(NC(=O)Nc4c(F)cc(F)cc4F)cc3F)c3c2C(=O)NC3)[nH]1 [Compound 7, 1-{3-fluoro-4-[7-(5-methyl-1H-imidazol-2-yl)-1-oxo-2,3-dihydro-1H-isoindol-4-yl]-phenyl}-3-(2,4,6-trifluorophenyl)urea]
Potency relative to conventional IDH1 therapeutic agents (e.g., Tibsovo) [1]: more potent | Sensitivity of patient samples with FLT3-ITD mutations as compared to wild-type [2]: highly sensitive | Sensitivity of patient samples with FLT3-ITD mutations as compared to wild-type ([2]; listed as compound 7): more sensitive | Sensitivity of patient samples with IDH1 R132 residue mutants relative to WT ([2]; AML patient samples with IDH1 R132 residue mutants (n=6), on average, vs WT): significantly greater sensitivity | Sensitivity of patient samples with IDH1 mutants relative to WT [2]: highly sensitive | Sensitivity of patient samples with IDH1 mutants relative to WT ([2]; listed as compound 7): greater sensitivity | Effectiveness (AUC of drug sensitivity) against ASXL1 mutant cells compared with wild type ([2]; 72-hour culture): just as effective | Effectiveness (AUC of drug sensitivity) in AML cells with IDH mutations compared to IDH wild type ([2]; IDH mutant vs IDH wild type AML cells, 72-hour culture, FIG. 4): substantially more effective | Effectiveness (AUC of drug sensitivity) against SRSF2 mutant cells compared with wild type ([2]; 72-hour culture, FIG. 4): just as effective | Effectiveness (AUC of drug sensitivity) in AML cells with TP53 mutations ([2]; TP53 mutant vs TP53 wild type AML cells, 72-hour culture, FIG. 3): retains effectiveness | IC50 towards killing cells in AML patient bone marrow samples with IDH1 mutations ([2]; all patient samples with IDH1 mutations, FIG. 2): particular low

CC1(COc2ccc3c(c2)ncn3-c2ccc3cccc(N4CCC(N)CC4)c3n2)COC1 [crenolanib, reference compound]
Effectiveness (AUC of drug sensitivity) against ASXL1 mutant cells compared with wild type ([2]; 72-hour culture): appear resistant | Effectiveness (AUC of drug sensitivity) against SRSF2 mutant cells compared with wild type ([2]; 72-hour culture, FIG. 4): appear resistant
